This is an account of results in patent US20190364890A1, “SYNERGISTIC COMBINATION OF ORTHO-PHENYLPHENOL AND BIS-(3-AMINOPROPYL)DODECYLAMINE” (Dow Global Technologies LLC, priority 2016, published 2019).

What all share (experiment): Minimum Inhibitory Concentration (MIC) test / synergy testing
Holding throughout (format): cell-based

Assay [1] deals with Candida albicans DSM# 1386. The conditions noted are these: single biocide, TSB medium pH 5, 30° C., 72 hours. Here is the method: (§1) The synergism of the biocides combination of the present invention was determined using the Minimum Inhibitory (MIC) test method described by Kull, F. C., et. al in Applied Microbiology 9:538-541 (1961).
The Minimum Inhibitory Concentration Test (MIC) is designed to evaluate the lowest concentration of a biocide, biocide blend or biocide combination to prevent bacteria growing in a defined broth. […]
The synergy testing was carried out as follows: • 1. The test was executed with a Hamilton MLStarPlus robot using automated turbidity reading with BioTek Synergy H4 plate reader. • 2. […]
• The cultures were maintained as glycerol stocks at −80° C. in cryovials, are thawed and then 100 μl spread on MEA (malt extract agar) petri dishes. • The yeast strain plates were incubated at 28° C. for 1-2 days then harvested with buffer pH 5.0. • Based on total viable count results, the inoculum was prepared. • 7. […] Reading of the results was carried out by measuring absorbance at 600 nm for each sample at the beginning of the test (tzero) and after incubation (tendpoint). tendpoint was chosen at 48 hours for bacteria and 72 hours for yeast. The difference in absorbance between tendpoint and tzero was used to assign a score (“1” if Δ>0.2, confirming growth, and “0” if Δ≤0.2, confirming no growth) from which the MIC values were derived.

The subject of a further assay is Pseudomonas putida. The conditions noted are these: single biocide, TSB medium pH 5, 30° C., 48 hours. The procedure:
as §1
(§2) The Minimum Inhibitory Concentration Test (MIC) is designed to evaluate the lowest concentration of a biocide, biocide blend or biocide combination to prevent bacteria growing in a defined broth.
(§3) The MICs of the single biocides NaOPP and BDA as well as of combinations of these two actives (all in TSB) in 3 different ratios (1:1; 10:1, 100:1) were estimated against each of the 4 microorganisms Staphylococcus aureus (DSMZ#799), Pseudomonas aeruginosa (DSMZ#939) and Candida albicans (DSMZ#1386), Pseudomonas putida, respectively.
(§4) The synergy testing was carried out as follows: • 1. The test was executed with a Hamilton MLStarPlus robot using automated turbidity reading with BioTek Synergy H4 plate reader. • 2. Biocide systems were prepared in 2.2 ml deep well plates by transferring and diluting biocides from stock solutions to first rows of the plates. The concentrations of biocides in stock bottles were adjusted to be 20× more concentrated than the highest desired concentration. • 3. Then 15 subsequent serial dilutions with dilution factor 1.3 were performed resulting in 16 different concentrations for each system. • 4. In the next step serially diluted biocide systems were transferred to the media blocks containing 850 μl of TSB medium adjusted to pH 5. For each biocide system 100 μl was transferred to the media, resulting in 950 μl of final volume of media+biocides and 9.5 times dilution of the biocides from the biocide plate. At this point, the concentrations of all biocides in media were 1.053×final concentration. • 5. After preparation and mixing of the described systems, 4 aliquots of 190 μl were prepared in 96-well microtiter plates. • 6. Preparation of the microbe suspension:
(§5) • The culture was maintained as a glycerol stock at −80° C. in cryovials. A cryovial was thawed and then 100 μl spread on a TSA agar plate. After incubation for 1 day at 30° C. the bacteria were harvested with buffer at pH 7.3. A total viable count on TSA plate was carried out and bacterial suspension was diluted in buffer in order to deliver ˜2×10^7 CFU/ml.
(§6) • The cultures were maintained as glycerol stocks at −80° C. in cryovials, are thawed and then 100 μl spread on MEA (malt extract agar) petri dishes. • The yeast strain plates were incubated at 28° C. for 1-2 days then harvested with buffer pH 5.0. • Based on total viable count results, the inoculum was prepared. • 7. Each test sample (190 μl) was inoculated with the 10 μl of microbe suspension to provide a level of ˜1×10^6 CFU/ml of the bacteria species and ˜1×10^5 CFU/ml of the yeast species. • 8. The test samples were mixed and incubated at 30° C. for 2 days (48 hours) when tested against bacteria and 3 days (72 hours), respectively, when tested against yeast. • 9. Growth of the micro-organisms leads to turbidity after incubation, clarity indicates no growth. Reading of the results was carried out by measuring absorbance at 600 nm for each sample at the beginning of the test (tzero) and after incubation (tendpoint). tendpoint was chosen at 48 hours for bacteria and 72 hours for yeast. The difference in absorbance between tendpoint and tzero was used to assign a score (“1” if Δ>0.2, confirming growth, and “0” if Δ≤0.2, confirming no growth) from which the MIC values were derived.

Assay [2] relates to Staphylococcus aureus DSM# 799. The following applies: single biocide, TSB medium pH 5, 30° C., 48 hours. The procedure: as §1, §2, §3, §4, §5, §6
For assay [3], the system named is Pseudomonas aeruginosa DSM# 939. The following applies: single biocide, TSB medium pH 5, 30° C., 48 hours. The procedure: as §1, §2, §3, §4, §5, §6

On to `CCCCCCCCCCCCN(CCCN)CCCN` [BDA, bis-(3-aminopropyl)dodecylamine], for which the minimum inhibitory concentration (MIC) was not below 260 µg/mL in assay [1] (Candida albicans, DSM1386, read-out: MIC results for single biocides); 200 µg/mL with Pseudomonas putida (Pseudomonas putida, read-out: MIC results for single biocides); 91 µg/mL in assay [2] (Staphylococcus aureus, DSM799, read-out: MIC results for single biocides); 200 µg/mL in assay [3] (Pseudomonas aeruginosa, DSM939, read-out: MIC results for single biocides).

On to `[Na+].[O-]c1ccccc1-c1ccccc1` [NAOPP, sodium ortho-phenylphenate], for which the “MIC results for single biocides” value in assay [1] amounted to 167 ppm; in the assay with Pseudomonas putida, 283 ppm; in assay [2], 129 ppm; in assay [3], 167 ppm.
